Values quoted from earlier work in US20060173046A1, “Hydroxypyridine cgrp receptor antagonists” (priority 2003, published 2006).
Ends that are not written are not given here.

Columns and labels:
marmoset = details: electrical stimulation of the trigeminal ganglion
rats = details: electrical stimulation of the dura mater, prior administration
rat = details: trigeminal ganglion stimulation

Compound | increase in facial blood flow (marmoset) | increase of the diameter of the middle meningeal artery (rats) | increased facial blood flow (rat)
NCCCC[C@H](NC(=O)[C@@H](Cc1cc(Br)c(O)c(Br)c1)NC(=O)N1CCC(N2Cc3ccccc3NC2=O)CC1)C(=O)N1CCN(c2ccncc2)CC1 [BIBN4096BS] | blocked | – | –
CGRP(8-37): a peptide CGRP antagonist (VTHRLAGLLSRSGGVVKNNFVPTNVGSKAF; ends and bridges not checked; UniProt P06881 90-119, looked up, fragment) | – | blocked | inhibited
